Measured values as given in PMC12321279, “Novel 4,5‐Dihydrothiazole‐Phenylpiperazine Derivatives: Synthesis, Docking Studies and Pharmacological Evaluation as Serotonergic Agents” (Chemmedchem, 2025).

Key:
[1] = tested on: mice; test: DOI‐induced head‐twitch reaction (HTR); assay type: in vivo; conditions: 30 mg kg^−1 i.p. 60 min before DOI, 20 min observation
Description: (§1) The tests were performed on male white mice of the Albino Swiss strain, whose weight was between 24 and 30 g in Experimental Medicine Center, Medical University of Lublin, Poland. The animals were housed (four/five per cage). Before conducting the experimental tests, the animals were subjected to an adaptation that lasted seven days. This consisted of keeping them in a room with relatively constant conditions: a temperature of 22 ± 1 °C, a humidity of 55 ± 5% and lighting that mimicked the natural day and night rhythm (12 h/12 h). Constant access to food and water was provided. Standard feed—LSM Motycz pelleted feed—and tap water were used. Mice were randomly allocated to study groups. Each group was represented by 8–10 animals, depending on the research schedule. The experiments were performed according to the procedures set out in the regulations for animal experiments: National Institute of Health Guidelines for the Care and Use of Laboratory Animals (8th edition) and to the European Community Council Directive for the Care and Use of Laboratory Animals of 22 September 2010 (2010/63/EU). […]
Head‐twitch reaction (HTR) is a very characteristic behavior of the head. […] Then, after administration of the tested compounds, DOI was immediately observed for 20 min, and the number of HTR was counted. […]

[2] = tested on: larval zebrafish; test: Light–dark transition assay in larval zebrafish; assay type: in vivo, zebrafish (Danio rerio); conditions: 5 dpf larvae, 20 h incubation at maximum‐tolerated concentration (FG‐1 500 μM, FG‐18 25 μM)
Description: (§2) All experiments were conducted on zebrafish (Danio rerio) larvae up to 5 days post fertilization (dpf), therefore, in accordance with current European legislation, ethical permission to conduct assays was not required. However, housing and experimental procedures were performed in compliance with the National Institute of Health Guidelines for the Care and Use of Laboratory Animals and the European Union Directive of 22 September 2010 (2010/63/EU) on protecting animals used for scientific purposes. All efforts were taken to minimize larvae stress and suffering. Larvae were euthanized with an overdose of tricaine ([…]). […] Before the respective behavioral tests were conducted, larvae at 4 dpf were incubated for 20 h in different arylpiperazine derivatives solutions of maximum‐tolerated concentrations (MCTs), determined during toxicological screening.^[ [30], [32] ^] […] Basic locomotor activity was measured using an automated tracking device, Daniovision by Noldus, and the total distance traveled was quantified using EthoVision XT software of the same company (Wageningen, the Netherlands) over a 30 min long observation period. […] The PTZ‐induced hyperlocomotion (acute seizure assay) was assessed in 5 dpf larval zebrafish (after 20 h incubation with tested derivatives at MCTs). […] Similarly, the data were recorded as the distance traveled (mm) by larvae when exposed to alternating lightning. […]

[3] = tested on: larval zebrafish; test: PTZ‐induced acute seizure assay in larval zebrafish; assay type: in vivo, zebrafish (Danio rerio); conditions: 5 dpf larvae, 20 h incubation at maximum‐tolerated concentration (FG‐1 500 μM, FG‐18 25 μM), PTZ 20 mM, 30 min
Description: as §2

[4] = tested on: mice; test: Body temperature in normothermic mice; assay type: in vivo
Description: as §1, with “schedule.” for “schedule. The experiments were performed according to the procedures set out in the regulations for animal experiments: National Institute of Health Guidelines for the Care and Use of Laboratory Animals (8th edition) and to the European Community Council Directive for the Care and Use of Laboratory Animals of 22 September 2010 (2010/63/EU).”
Body temperature in normothermic mice was measured in the rectum of animals by thermistor thermometer till 120 min after tested compounds injection. […] The final temperature (tf) was measured 30, 60, 90, and 120 min after the injection of tested compounds. Body temperature changes (Δt) were calculated according to the formula: Δt = tf − ti.

[5] = tested on: mice; test: Spontaneous locomotor activity; assay type: in vivo; conditions: 20 min observation
Description: The tests were performed on male white mice of the Albino Swiss strain, whose weight was between 24 and 30 g in Experimental Medicine Center, Medical University of Lublin, Poland. The animals were housed (four/five per cage). Before conducting the experimental tests, the animals were subjected to an adaptation that lasted seven days. This consisted of keeping them in a room with relatively constant conditions: a temperature of 22 ± 1 °C, a humidity of 55 ± 5% and lighting that mimicked the natural day and night rhythm (12 h/12 h). Constant access to food and water was provided. Standard feed—LSM Motycz pelleted feed—and tap water were used. Mice were randomly allocated to study groups. Each group was represented by 8–10 animals, depending on the research schedule. The experiments were performed according to the procedures set out in the regulations for animal experiments: National Institute of Health Guidelines for the Care and Use of Laboratory Animals (8th edition) and to the European Community Council Directive for the Care and Use of Laboratory Animals of 22 September 2010 (2010/63/EU). The study was approved by the Local Ethical Committee in Lublin (number of ethical approvals: 27/2023). Tested compounds: FG‐1, FG‐4, FG‐5, FG‐6, FG‐7, FG‐8, and FG‐18 were finely ground in mortars with the addition of the emulsifier Tween‐80. A suspension was obtained, which was then diluted with aqueous solution of 0.5% methylcellulose (tylose). The mixture was then administered intraperitoneally (i.p.) to the animals 60 min before the start of the experiments. Animals in the control groups received a 0.5% tylose solution. All substances were administered via the same route of administration in appropriate dose and volume of 0.1 mL per 10 g of animal body weight. Prior to the administration of the drug, the animals were weighed, during the interval between tests, they were provided with food, water, and constant living conditions.
An Opto‐Varimex‐4 Auto‐Track animal activity meter (Columbus Instruments, USA) was used to study animal movement, which consists of eight transparent cages with lids measuring 43 × 43 × 32 cm, a set of four infrared transmitters (each transmitter has 16 laser beams) and four detectors to monitor animal movements. Testing was initiated 60 min after compound administration. For the spontaneous locomotor activity study, tylose was administered to the control group and the tested compounds. For the amphetamine‐induced or MK‐801‐induced hyperactivity tests, tylose, the tested compounds and after 30 min, amphetamine (3 mg kg^−1) or MK‐801 (0.3 mg kg^−1) were administered. While the test was being performed, animals were individually caged, initially for 5 min of adaptation, followed by 20 min of actual mobility testing.

[6] = 15 mg kg^−1 i.p. 60 min before test
[7] = 30 mg/kg i.p. 60 min before test

Compound: O=C(NCCCN1CCN(c2ccc(C3=NCCS3)cc2)CC1)C1CC2C=CC1C2 (stereo not drawn) [FG‐18, Endo‐ N‐(3‐(4‐(4‐(4,5‐dihydrothiazol‐2‐yl)phenyl)piperazin‐1‐yl)propyl) bicyclo[2.2.1]hept‐5‐ene‐2‐carboxamide]
- DOI‐induced HTR (number of head twitches) [1]: significant decrease in HTR
- larval behavior under the dark conditions (light–dark transition) [2]: influenced larval behavior under the dark conditions
- distance traveled by PTZ‐exposed larvae (seizure‐like behavior) [3]: significantly increased the distance traveled

Compound: O=C(NCCCN1CCN(c2cccc(C3=NCCS3)c2)CC1)c1ccncc1 [FG‐5, N‐(3‐(4‐(3‐(4,5‐dihydrothiazol‐2‐yl) phenyl) piperazin‐1‐yl) propyl) isonicotinamide]
- body temperature of normothermic mice ([4]; 30 mg kg^−1 i.p., from 30 to 90 min): significant decrease in the body temperature

Compound: O=C1C2C3C=CC(C3)C2C(=O)N1OCCCN1CCN(c2ccccc2C2=NCCS2)CC1 (stereo not drawn) [FG‐7, 2‐(3‐(4‐(2‐(4,5‐dihydrothiazol‐2‐yl) phenyl) piperazin‐1‐yl) propoxy)‐3a,4,7,7a‐tetrahydro‐1 H‐4,7‐methanoisoindole‐1,3(2 H)‐dione]
- spontaneous locomotor activity [5, 6]: did not change the motility of mice
- spontaneous locomotor activity [5, 7]: significant decrease in spontaneous locomotor activity

Compound: O=C(NCCCN1CCN(c2ccc(C3=NCCS3)cc2)CC1)c1ccncc1 [FG‐6, N‐(3‐(4‐(4‐(4,5‐dihydrothiazol‐2‐yl) phenyl) piperazin‐1‐yl) propyl) isonicotinamide]
- spontaneous locomotor activity [5, 6]: did not change the motility of mice
- spontaneous locomotor activity [5, 7]: significant decrease in spontaneous locomotor activity
- body temperature of normothermic mice ([4]; 15 mg kg^−1 i.p., from 30 to 90 min and also in 120 min): significant decrease in the body temperature

Compound: O=C(NCCCN1CCN(c2ccccc2C2=NCCS2)CC1)c1ccccn1 [FG‐1, N‐(3‐(4‐(2‐(4,5‐dihydrothiazol‐2‐yl) phenyl) piperazin‐1‐yl) propyl) picolinamide]
- DOI‐induced HTR (number of head twitches) [1]: significant decrease in HTR
- larval behavior under the dark conditions (light–dark transition) [2]: influenced larval behavior under the dark conditions
- distance traveled by PTZ‐exposed larvae (seizure‐like behavior) [3]: substantially decreased
